In US12077503B2, “Substituted cyclic amides and their use as herbicides” (FMC CORPORATION, priority 2015, dated 2024):

How the values were obtained:
Format in all cases: in vivo
[1] = system: Kochia (Kochia scoparia); assay: Test A preemergence; details: Bassia scoparia, pre-emergence, 240 h, Preemergence; for pest or weed control at 31 g/ha: 31 g ai/ha, 0 to 100 scale where 0 is no effect and 100 is complete control, read-out: Kochia plant response rating; for pest or weed control at 125 g/ha: 125 g ai/ha, visual injury rating after approximately 10 d, read-out: Kochia plant response rating (0 to 100 scale, 0 is no effect, 100 is complete control)
Procedure, shortened: (§1)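 Preemergence directed soil spray on seeded pots, or postemergence application to plants 2–10 cm, one- to two-leaf. Solvent mixture non-phytotoxic, with surfactant. Scored ~10 d later, visually, 0–100 vs untreated.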

[2] = system: barnyardgrass (Echinochloa crus-galli); assay: Test A preemergence; details: Echinochloa crus-galli, pre-emergence, 240 h, Preemergence; for pest or weed control at 125 g/ha: 125 g ai/ha, visual injury rating after approximately 10 d, read-out: Barnyardgrass plant response rating (0 to 100 scale, 0 is no effect, 100 is complete control); for pest or weed control at 31 g/ha: 31 g ai/ha, 0 to 100 scale (0 no effect, 100 complete control), read-out: Plant response rating, Barnyardgrass
Procedure, shortened: as §1

[3] = system: giant foxtail (Setaria faberii); assay: Test A preemergence; details: Setaria faberi, pre-emergence, 240 h, Preemergence; for pest or weed control at 125 g/ha: 125 g ai/ha, visual injury rating after approximately 10 d, read-out: Foxtail, Giant plant response rating (0 to 100 scale, 0 is no effect, 100 is complete control); for pest or weed control at 31 g/ha: 31 g ai/ha, 0 to 100 scale (0 no effect, 100 complete control), read-out: Plant response rating, Foxtail, Giant
Procedure, shortened: as §1

[4] = system: pigweed (Amaranthus retroflexus); assay: Test A preemergence; details: Amaranthus retroflexus, pre-emergence, 240 h, Preemergence; for pest or weed control at 31 g/ha: 31 g ai/ha, 0 to 100 scale where 0 is no effect and 100 is complete control, read-out: Pigweed plant response rating; for pest or weed control at 125 g/ha: 125 g ai/ha, visual injury rating after approximately 10 d, read-out: Pigweed plant response rating (0 to 100 scale, 0 is no effect, 100 is complete control)
[5] = system: ragweed (common ragweed, Ambrosia elatior); assay: Test A preemergence; details: Ambrosia artemisiifolia, pre-emergence, 240 h, Preemergence; for pest or weed control at 31 g/ha: 31 g ai/ha, 0 to 100 scale where 0 is no effect and 100 is complete control, read-out: Ragweed plant response rating; for pest or weed control at 125 g/ha: 125 g ai/ha, visual injury rating after approximately 10 d, read-out: Ragweed plant response rating (0 to 100 scale, 0 is no effect, 100 is complete control)
Procedure, shortened: as §1

[6] = system: ryegrass, Italian (Italian ryegrass, Lolium multiflorum); assay: Test A preemergence; details: Lolium multiflorum, pre-emergence, 240 h, Preemergence; for pest or weed control at 31 g/ha: 31 g ai/ha, 0 to 100 scale where 0 is no effect and 100 is complete control, read-out: Ryegrass, Italian plant response rating; for pest or weed control at 125 g/ha: 125 g ai/ha, visual injury rating after approximately 10 d, read-out: Ryegrass, Italian plant response rating (0 to 100 scale, 0 is no effect, 100 is complete control)
Procedure, shortened: as §1

[7] = system: Galium (catchweed bedstraw, Galium aparine); assay: Test A postemergence; details: Galium, post-emergence, 240 h; for pest or weed control at 125 g/ha: 125 g ai/ha, postemergence, visual injury on 0 to 100 scale (0 no effect, 100 complete control), approx. 10 d, read-out: Galium plant response rating; for pest or weed control at 31 g/ha: Postemergence, 31 g ai/ha, visual injury after approx. 10 d, 0 to 100 scale, 0 no effect, 100 complete control, read-out: Plant response rating, Galium
Procedure, shortened: as §1

[8] = system: Kochia (Kochia scoparia); assay: Test A postemergence; details: Bassia scoparia, post-emergence, 240 h; for pest or weed control at 125 g/ha: 125 g ai/ha, postemergence, visual injury on 0 to 100 scale (0 no effect, 100 complete control), approx. 10 d, read-out: Kochia plant response rating; for pest or weed control at 31 g/ha: Postemergence, 31 g ai/ha, visual injury after approx. 10 d, 0 to 100 scale, 0 no effect, 100 complete control, read-out: Plant response rating, Kochia
Procedure, shortened: as §1

[9] = system: barnyardgrass (Echinochloa crus-galli); assay: Test A postemergence; details: Echinochloa crus-galli, post-emergence, 240 h; for pest or weed control at 125 g/ha: 125 g ai/ha, postemergence, visual injury on 0 to 100 scale (0 no effect, 100 complete control), approx. 10 d, read-out: Barnyardgrass plant response rating; for pest or weed control at 31 g/ha: Postemergence, 31 g ai/ha, visual injury after approx. 10 d, 0 to 100 scale, 0 no effect, 100 complete control, read-out: Plant response rating, Barnyardgrass
Procedure, shortened: as §1

[10] = system: blackgrass (Alopecurus myosuroides); assay: Test A postemergence; details: Alopecurus myosuroides, post-emergence, 240 h; for pest or weed control at 125 g/ha: 125 g ai/ha, postemergence, visual injury on 0 to 100 scale (0 no effect, 100 complete control), approx. 10 d, read-out: Blackgrass plant response rating; for pest or weed control at 31 g/ha: Postemergence, 31 g ai/ha, visual injury after approx. 10 d, 0 to 100 scale, 0 no effect, 100 complete control, read-out: Plant response rating, Blackgrass
Procedure, shortened: as §1

[11] = system: corn (Zea mays); assay: Test A postemergence; details: Zea mays, post-emergence, 240 h; for plant injury at 125 g/ha: 125 g ai/ha, postemergence, visual injury on 0 to 100 scale (0 no effect, 100 complete control), approx. 10 d, read-out: Corn plant response rating; for Corn plant response rating (crop injury, 0 = no effect, 100 = complete kill) at 31 g/ha: Postemergence, 31 g ai/ha, visual injury after approx. 10 d, 0 to 100 scale, 100 complete control
Procedure, shortened: as §1

[12] = system: giant foxtail (Setaria faberii); assay: Test A postemergence; details: Setaria faberi, post-emergence, 240 h; for pest or weed control at 125 g/ha: 125 g ai/ha, postemergence, visual injury on 0 to 100 scale (0 no effect, 100 complete control), approx. 10 d, read-out: Foxtail, Giant plant response rating; for pest or weed control at 31 g/ha: Postemergence, 31 g ai/ha, visual injury after approx. 10 d, 0 to 100 scale, 0 no effect, 100 complete control, read-out: Plant response rating, Foxtail, Giant
Procedure, shortened: as §1

[13] = system: pigweed (Amaranthus retroflexus); assay: Test A postemergence; details: Amaranthus retroflexus, post-emergence, 240 h; for pest or weed control at 125 g/ha: 125 g ai/ha, postemergence, visual injury on 0 to 100 scale (0 no effect, 100 complete control), approx. 10 d, read-out: Pigweed plant response rating; for pest or weed control at 31 g/ha: Postemergence, 31 g ai/ha, visual injury after approx. 10 d, 0 to 100 scale, 0 no effect, 100 complete control, read-out: Plant response rating, Pigweed
Procedure, shortened: as §1

[14] = system: ragweed (common ragweed, Ambrosia elatior); assay: Test A postemergence; details: Ambrosia artemisiifolia, post-emergence, 240 h; for pest or weed control at 125 g/ha: 125 g ai/ha, postemergence, visual injury on 0 to 100 scale (0 no effect, 100 complete control), approx. 10 d, read-out: Ragweed plant response rating; for pest or weed control at 31 g/ha: Postemergence, 31 g ai/ha, visual injury after approx. 10 d, 0 to 100 scale, 0 no effect, 100 complete control, read-out: Plant response rating, Ragweed
Procedure, shortened: as §1

[15] = system: ryegrass, Italian (Italian ryegrass, Lolium multiflorum); assay: Test A postemergence; details: Lolium multiflorum, post-emergence, 240 h; for pest or weed control at 125 g/ha: 125 g ai/ha, postemergence, visual injury on 0 to 100 scale (0 no effect, 100 complete control), approx. 10 d, read-out: Ryegrass, Italian plant response rating; for pest or weed control at 31 g/ha: Postemergence, 31 g ai/ha, visual injury after approx. 10 d, 0 to 100 scale, 0 no effect, 100 complete control, read-out: Plant response rating, Ryegrass, Italian
Procedure, shortened: as §1

[16] = system: wheat (Triticum aestivum); assay: Test A postemergence; details: Triticum aestivum, post-emergence, 240 h; for plant injury at 125 g/ha: 125 g ai/ha, postemergence, visual injury on 0 to 100 scale (0 no effect, 100 complete control), approx. 10 d, read-out: Wheat plant response rating; for plant injury at 31 g/ha: Postemergence, 31 g ai/ha, visual injury after approx. 10 d, 0 to 100 scale, 0 no effect, 100 complete control, read-out: Plant response rating, Wheat
Procedure, shortened: as §1

[17] = system: barnyardgrass (Echinochloa crus-galli); assay: Test B flooded paddy test; details: Echinochloa crus-galli, 250 g ai/ha, Flood; 0 to 100 scale where 0 is no effect and 100 is complete control; read-out: Barnyardgrass plant response rating
Procedure, shortened: (§2)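 2-leaf plants; pots flooded 3 cm over soil; cpd added to paddy water; depth held; greenhouse 13–15 d; visual rating vs controls, 0 = no effect, 100 = complete control.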

[18] = system: ducksalad (Heteranthera limosa); assay: Test B flooded paddy test; details: Heteranthera limosa, 250 g ai/ha, Flood; 0 to 100 scale where 0 is no effect and 100 is complete control; read-out: Ducksalad plant response rating
Procedure, shortened: as §2

[19] = system: rice (Oryra sativa); assay: Test B flooded paddy test; details: Oryza sativa, 250 g ai/ha, Flood; 0 to 100 scale where 0 is no effect and 100 is complete control; read-out: Rice plant response rating
Procedure, shortened: as §2

[20] = system: sedge, umbrella (small-flower umbrella sedge, Cyperus difformis); assay: Test B flooded paddy test; details: Cyperus difformis, 250 g ai/ha, Flood; 0 to 100 scale where 0 is no effect and 100 is complete control; read-out: Sedge, Umbrella plant response rating
Procedure, shortened: as §2

SMILES	pest or weed control at 31 g/ha [1] [%]	pest or weed control at 125 g/ha [1] [%]	pest or weed control at 125 g/ha [2] [%]	pest or weed control at 31 g/ha [2] [%]	pest or weed control at 125 g/ha [3] [%]	pest or weed control at 31 g/ha [3] [%]	pest or weed control at 31 g/ha [4] [%]	pest or weed control at 125 g/ha [4] [%]	pest or weed control at 31 g/ha [5] [%]	pest or weed control at 125 g/ha [5] [%]	pest or weed control at 31 g/ha [6] [%]	pest or weed control at 125 g/ha [6] [%]	pest or weed control at 125 g/ha [7] [%]	pest or weed control at 31 g/ha [7] [%]	pest or weed control at 125 g/ha [8] [%]	pest or weed control at 31 g/ha [8] [%]	pest or weed control at 125 g/ha [9] [%]	pest or weed control at 31 g/ha [9] [%]	pest or weed control at 125 g/ha [10] [%]	pest or weed control at 31 g/ha [10] [%]	further results
CSc1ccccc1NC(=O)[C@H]1C(=O)NC[C@@H]1c1ccc(C(F)(F)F)cn1 [Compound 1050]	0	0	0	0	0	0	0	0	0	0	0	0	0	0	0	0	0	0	0	0	plant injury at 125 g/ha [11]: 0%; Corn plant response rating (crop injury, 0 = no effect, 100 = complete kill) at 31 g/ha [11]: 0%; pest or weed control at 125 g/ha [12]: 0%; pest or weed control at 31 g/ha [12]: 0%; pest or weed control at 125 g/ha [13]: 0%; pest or weed control at 31 g/ha [13]: 0%; pest or weed control at 125 g/ha [14]: 0%; pest or weed control at 31 g/ha [14]: 0%; pest or weed control at 125 g/ha [15]: 0%; pest or weed control at 31 g/ha [15]: 0%; plant injury at 125 g/ha [16]: 0%; plant injury at 31 g/ha [16]: 0%; pest or weed control at 250 g/ha [17]: 0%; pest or weed control at 250 g/ha [18]: 85%; pest or weed control at 250 g/ha [19]: 0%; pest or weed control at 250 g/ha [20]: 0%
CN1C[C@H](c2ccc(C(F)(F)F)cn2)[C@@H](C(=O)Nc2cccc(F)c2F)C1=O [Compound 1052]	20	70	90	30	90	80	40	80	0	20	0	30	70	40	40	0	80	30	20	0	plant injury at 125 g/ha [11]: 0%; Corn plant response rating (crop injury, 0 = no effect, 100 = complete kill) at 31 g/ha [11]: 0%; pest or weed control at 125 g/ha [12]: 70%; pest or weed control at 31 g/ha [12]: 30%; pest or weed control at 125 g/ha [13]: 30%; pest or weed control at 31 g/ha [13]: 0%; pest or weed control at 125 g/ha [14]: 30%; pest or weed control at 31 g/ha [14]: 0%; pest or weed control at 125 g/ha [15]: 20%; pest or weed control at 31 g/ha [15]: 0%; plant injury at 125 g/ha [16]: 0%; plant injury at 31 g/ha [16]: 0%; pest or weed control at 250 g/ha [17]: 85%; pest or weed control at 250 g/ha [18]: 100%; pest or weed control at 250 g/ha [19]: 0%; pest or weed control at 250 g/ha [20]: 0%
